Measured values as given in patent US11413264B2, “Carbamoyl phenylalaninol analogs and uses thereof” (Jazz Pharmaceuticals Ireland Limited, priority 2017, dated 2022).
Counter-ions that a name gives are not always drawn. Like-named read-outs stand apart in the source and are kept apart here.

Experiments:
[1] = target: T1, alpha2A adrenergic receptor (Alpha2A) (Homo sapiens, UniProt P08913); assay: Competitive radioligand binding assay, α2A (antagonist radioligand); conditions: compound at 10 μM
T1 construct: expressed in transfected cells; host or cells: CHO cells (membrane fractions)
T1 sequence (P08913 1-465): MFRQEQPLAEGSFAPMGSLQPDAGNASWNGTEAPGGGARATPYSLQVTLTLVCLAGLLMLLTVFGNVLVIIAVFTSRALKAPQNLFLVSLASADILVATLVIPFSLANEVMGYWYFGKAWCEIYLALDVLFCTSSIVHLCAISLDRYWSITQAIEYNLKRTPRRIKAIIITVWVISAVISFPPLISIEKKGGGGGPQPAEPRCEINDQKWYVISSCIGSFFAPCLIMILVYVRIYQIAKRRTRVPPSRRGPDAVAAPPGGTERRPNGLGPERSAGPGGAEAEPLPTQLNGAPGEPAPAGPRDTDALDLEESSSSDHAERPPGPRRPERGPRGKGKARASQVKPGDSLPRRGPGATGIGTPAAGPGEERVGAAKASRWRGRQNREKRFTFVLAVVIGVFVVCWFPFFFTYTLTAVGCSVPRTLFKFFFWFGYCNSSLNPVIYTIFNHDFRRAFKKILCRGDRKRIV
Description: (§1) Compounds of the invention were tested for pharmacological activity in comparison to APC. Eight binding assays were carried out to provide a binding profile for each compound, including binding to dopamine transporter (DAT), norepinephrine transporter (NET), serotonin (5-HT) transporter (SERT), alpha2A adrenergic receptor (Alpha2A), alpha2C adrenergic receptor (Alpha2C), D2S dopamine receptor (D2S), D2L dopamine receptor (D2L), and vesicular monoamine transporter (VMAT2). Competitive binding assays using a radiolabeled ligand were carried out with each compound at 10 μM. The radioligand for each target was as follows: DAT—BTCP, NET—nisoxetine, SERT—imipramine, Alpha2A—yohimbine, Alpha2C—yohimbine, D2S—7-OH-DPAT, D2L—methylspiperone, VMAT2—tetrabenazine. The source of the receptors and transporters were prepared cell membrane fractions.

[2] = target: T2, alpha2C adrenergic receptor (Alpha2C) (Homo sapiens, UniProt P18825); assay: Competitive radioligand binding assay, α2C (antagonist radioligand); conditions: compound at 10 μM
T2 construct: expressed in transfected cells; host or cells: CHO cells (membrane fractions)
T2 sequence (P18825 1-462): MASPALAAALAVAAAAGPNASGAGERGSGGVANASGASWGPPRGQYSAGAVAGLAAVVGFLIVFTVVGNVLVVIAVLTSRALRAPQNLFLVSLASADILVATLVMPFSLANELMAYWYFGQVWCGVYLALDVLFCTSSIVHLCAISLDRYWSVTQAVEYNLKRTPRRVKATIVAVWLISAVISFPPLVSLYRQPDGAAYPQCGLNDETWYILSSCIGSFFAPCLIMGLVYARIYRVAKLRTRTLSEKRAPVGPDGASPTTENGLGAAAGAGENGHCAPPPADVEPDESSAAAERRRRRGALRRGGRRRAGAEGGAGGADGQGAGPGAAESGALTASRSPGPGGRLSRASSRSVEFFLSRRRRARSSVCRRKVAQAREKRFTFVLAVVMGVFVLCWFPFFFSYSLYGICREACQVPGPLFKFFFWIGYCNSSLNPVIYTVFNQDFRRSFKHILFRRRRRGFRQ
Description: as §1

[3] = target: T3, D2S dopamine receptor (D2S) (Homo sapiens, UniProt P14416); assay: Competitive radioligand binding assay, D2S (agonist radioligand); conditions: compound at 10 μM
T3 construct: expressed in transfected cells; host or cells: HEK-293 cells (membrane fractions)
T3 sequence (P14416 1-414 isoform P14416-2): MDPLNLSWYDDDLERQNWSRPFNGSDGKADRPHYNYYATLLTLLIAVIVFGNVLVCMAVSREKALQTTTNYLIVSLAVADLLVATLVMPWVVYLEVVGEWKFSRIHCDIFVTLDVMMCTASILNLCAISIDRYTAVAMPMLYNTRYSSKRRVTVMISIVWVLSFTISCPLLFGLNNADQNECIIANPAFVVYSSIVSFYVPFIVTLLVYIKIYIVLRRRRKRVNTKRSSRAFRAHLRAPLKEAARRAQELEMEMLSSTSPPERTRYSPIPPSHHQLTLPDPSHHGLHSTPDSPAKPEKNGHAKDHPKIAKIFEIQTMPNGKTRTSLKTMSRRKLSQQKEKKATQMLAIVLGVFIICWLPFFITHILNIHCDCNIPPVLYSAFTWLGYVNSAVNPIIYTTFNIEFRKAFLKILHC
Description: as §1

[4] = target: T4, D2L dopamine receptor (D2L) (Homo sapiens, UniProt P14416); assay: Competitive radioligand binding assay, D2L (antagonist radioligand); conditions: compound at 10 μM
T4 construct: expressed in transfected cells; host or cells: HEK-293 cells (membrane fractions)
T4 sequence (P14416 whole entry): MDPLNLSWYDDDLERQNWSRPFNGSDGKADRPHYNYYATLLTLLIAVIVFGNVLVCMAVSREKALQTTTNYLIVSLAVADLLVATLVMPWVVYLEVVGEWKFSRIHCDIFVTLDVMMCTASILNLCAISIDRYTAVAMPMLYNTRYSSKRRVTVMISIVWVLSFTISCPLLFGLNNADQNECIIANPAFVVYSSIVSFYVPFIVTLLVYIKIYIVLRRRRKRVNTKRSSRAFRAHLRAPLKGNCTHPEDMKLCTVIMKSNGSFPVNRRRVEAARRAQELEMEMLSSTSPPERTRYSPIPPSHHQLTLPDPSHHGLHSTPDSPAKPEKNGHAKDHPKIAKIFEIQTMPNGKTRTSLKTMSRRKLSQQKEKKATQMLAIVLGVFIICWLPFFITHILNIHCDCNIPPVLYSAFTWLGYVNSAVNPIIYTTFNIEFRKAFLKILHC
Description: as §1

[5] = target: T5, norepinephrine transporter (NET) (Homo sapiens, UniProt P23975); assay: Competitive radioligand binding assay, norepinephrine transporter (antagonist radioligand); conditions: compound at 10 μM
T5 construct: expressed in transfected cells; host or cells: CHO cells (membrane fractions)
T5 sequence (P23975 whole entry): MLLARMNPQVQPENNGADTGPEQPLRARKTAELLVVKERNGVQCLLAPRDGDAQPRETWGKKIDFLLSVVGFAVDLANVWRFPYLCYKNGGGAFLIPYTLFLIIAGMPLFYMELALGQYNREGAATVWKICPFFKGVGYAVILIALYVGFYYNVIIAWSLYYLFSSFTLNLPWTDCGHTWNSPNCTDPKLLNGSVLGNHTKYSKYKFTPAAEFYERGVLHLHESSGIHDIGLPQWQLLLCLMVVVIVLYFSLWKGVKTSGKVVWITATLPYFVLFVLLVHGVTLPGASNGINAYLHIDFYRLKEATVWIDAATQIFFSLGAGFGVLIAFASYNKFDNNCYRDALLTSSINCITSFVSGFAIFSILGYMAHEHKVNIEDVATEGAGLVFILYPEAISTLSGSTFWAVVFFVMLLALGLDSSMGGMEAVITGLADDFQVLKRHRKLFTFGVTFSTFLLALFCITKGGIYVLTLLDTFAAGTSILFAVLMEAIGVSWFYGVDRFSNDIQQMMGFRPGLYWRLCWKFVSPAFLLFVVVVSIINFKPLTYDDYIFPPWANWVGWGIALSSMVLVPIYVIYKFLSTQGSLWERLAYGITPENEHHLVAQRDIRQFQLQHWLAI
Description: as §1

[6] = target: T6, dopamine transporter (DAT) (Homo sapiens, UniProt Q01959); assay: Competitive radioligand binding assay, dopamine transporter (antagonist radioligand); conditions: compound at 10 μM; for binding to the dopamine transporter (in words): summary
T6 construct: expressed in transfected cells; host or cells: CHO cells (membrane fractions)
T6 sequence (Q01959 whole entry): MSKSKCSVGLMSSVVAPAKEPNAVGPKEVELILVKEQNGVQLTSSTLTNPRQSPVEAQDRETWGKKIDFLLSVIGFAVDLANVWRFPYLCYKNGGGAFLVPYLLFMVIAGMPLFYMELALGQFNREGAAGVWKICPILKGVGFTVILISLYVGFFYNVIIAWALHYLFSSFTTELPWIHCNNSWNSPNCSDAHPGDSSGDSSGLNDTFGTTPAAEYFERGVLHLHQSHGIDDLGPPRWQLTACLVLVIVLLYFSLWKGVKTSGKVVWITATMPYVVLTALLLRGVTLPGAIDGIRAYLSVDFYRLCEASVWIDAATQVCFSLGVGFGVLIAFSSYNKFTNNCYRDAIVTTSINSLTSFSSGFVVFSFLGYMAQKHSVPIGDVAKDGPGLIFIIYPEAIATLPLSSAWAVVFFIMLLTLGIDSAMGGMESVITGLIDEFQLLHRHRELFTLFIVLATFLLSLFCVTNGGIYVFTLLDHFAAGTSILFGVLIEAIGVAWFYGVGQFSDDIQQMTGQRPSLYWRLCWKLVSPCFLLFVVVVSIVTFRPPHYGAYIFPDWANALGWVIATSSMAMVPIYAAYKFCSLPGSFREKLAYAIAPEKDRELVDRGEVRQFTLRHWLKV
Description: as §1

[7] = target: T7, serotonin (5-HT) transporter (SERT) (Homo sapiens, UniProt P31645); assay: Competitive radioligand binding assay, 5-HT transporter (antagonist radioligand); conditions: compound at 10 μM
T7 construct: expressed in transfected cells; host or cells: CHO cells (membrane fractions)
T7 sequence (P31645 whole entry): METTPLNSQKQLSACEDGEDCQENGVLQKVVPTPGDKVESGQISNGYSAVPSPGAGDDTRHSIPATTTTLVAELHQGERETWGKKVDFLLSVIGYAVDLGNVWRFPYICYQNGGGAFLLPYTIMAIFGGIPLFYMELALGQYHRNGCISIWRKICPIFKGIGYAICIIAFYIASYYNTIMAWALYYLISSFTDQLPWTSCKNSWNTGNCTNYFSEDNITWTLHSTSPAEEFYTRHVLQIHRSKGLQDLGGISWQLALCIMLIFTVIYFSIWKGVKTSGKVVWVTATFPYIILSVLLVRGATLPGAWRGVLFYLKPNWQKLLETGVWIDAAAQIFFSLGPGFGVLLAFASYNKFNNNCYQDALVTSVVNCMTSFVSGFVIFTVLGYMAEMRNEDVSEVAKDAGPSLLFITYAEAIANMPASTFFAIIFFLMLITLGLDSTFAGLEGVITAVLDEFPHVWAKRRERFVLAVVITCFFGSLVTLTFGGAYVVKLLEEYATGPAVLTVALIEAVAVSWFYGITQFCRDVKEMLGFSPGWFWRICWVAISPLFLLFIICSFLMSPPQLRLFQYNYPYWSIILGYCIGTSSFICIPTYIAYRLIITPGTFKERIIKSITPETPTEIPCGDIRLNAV
Description: as §1

[8] = target: T8, vesicular monoamine transporter (VMAT2) (Rattus norvegicus, UniProt Q01827); assay: Competitive radioligand binding assay, VMAT2 transporter (antagonist radioligand); conditions: compound at 10 μM
T8 construct: Rat brain; from tissue; host or cells: rat brain minus cerebellum, membrane fraction
T8 sequence (Q01827 whole entry): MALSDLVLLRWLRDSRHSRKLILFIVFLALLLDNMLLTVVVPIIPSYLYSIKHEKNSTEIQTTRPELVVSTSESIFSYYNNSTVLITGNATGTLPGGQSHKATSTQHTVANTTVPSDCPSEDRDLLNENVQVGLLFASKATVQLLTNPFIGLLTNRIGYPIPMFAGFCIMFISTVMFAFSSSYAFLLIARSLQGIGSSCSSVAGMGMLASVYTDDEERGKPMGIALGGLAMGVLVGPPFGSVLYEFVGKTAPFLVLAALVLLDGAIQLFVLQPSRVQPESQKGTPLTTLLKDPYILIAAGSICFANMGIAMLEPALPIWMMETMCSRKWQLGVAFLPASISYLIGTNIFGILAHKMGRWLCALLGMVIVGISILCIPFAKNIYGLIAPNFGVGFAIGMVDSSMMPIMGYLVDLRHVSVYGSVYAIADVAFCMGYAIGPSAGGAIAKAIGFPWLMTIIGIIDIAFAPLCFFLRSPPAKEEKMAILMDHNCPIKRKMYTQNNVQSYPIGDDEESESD
Description: as §1

[9] = 1st individual result, read-out: % inhibition of control specific binding, 1st
[10] = 2nd individual result, read-out: % inhibition of control specific binding, 2nd
[11] = mean, read-out: % inhibition of control specific binding, Mean
[12] = D2S, 1st individual result, read-out: % inhibition of control specific binding, 1st
[13] = D2S, 2nd individual result, read-out: % inhibition of control specific binding, 2nd
[14] = D2S, mean, read-out: % inhibition of control specific binding, Mean
[15] = [3H]7-OH-DPAT 1 nM, human recombinant (HEK-293 cells), read-out: % Inhibition of Binding at Each Transporter or Receptor Target, D2S
[16] = D2L, 1st individual result, read-out: % inhibition of control specific binding, 1st
[17] = D2L, 2nd individual result, read-out: % inhibition of control specific binding, 2nd
[18] = D2L, mean, read-out: % inhibition of control specific binding, Mean
[19] = [3H]methyl-spiperone 0.3 nM, human recombinant (HEK-293 cells), read-out: % Inhibition of Binding at Each Transporter or Receptor Target, D2L
[20] = Norepinephrine transporter, 1st individual result, read-out: % inhibition of control specific binding, 1st
[21] = Norepinephrine transporter, 2nd individual result, read-out: % inhibition of control specific binding, 2nd
[22] = Norepinephrine transporter, mean, read-out: % inhibition of control specific binding, Mean
[23] = [3H]nisoxetine 1 nM, human recombinant (CHO cells), read-out: % Inhibition of Binding at Each Transporter or Receptor Target, NET
[24] = Dopamine transporter, 1st individual result, read-out: % inhibition of control specific binding, 1st
[25] = Dopamine transporter, 2nd individual result, read-out: % inhibition of control specific binding, 2nd
[26] = Dopamine transporter, mean, read-out: % inhibition of control specific binding, Mean
[27] = [3H]BTCP 4 nM, human recombinant (CHO cells), read-out: % Inhibition of Binding at Each Transporter or Receptor Target, DAT
[28] = 5-HT transporter, 1st individual result, read-out: % inhibition of control specific binding, 1st
[29] = 5-HT transporter, 2nd individual result, read-out: % inhibition of control specific binding, 2nd
[30] = 5-HT transporter, mean, read-out: % inhibition of control specific binding, Mean
[31] = [3H]imipramine 2 nM, human recombinant (CHO cells), read-out: % Inhibition of Binding at Each Transporter or Receptor Target, SERT
[32] = VMAT2 transporter, single value, read-out: % inhibition of control specific binding, 1st
[33] = [3H]dihydrotetrabenazine 10 nM, rat brain (minus cerebellum), read-out: % Inhibition of Binding at Each Transporter or Receptor Target, VMAT2

| Structure (SMILES) | inhibition at 10 µM [1, 9] [%] | inhibition at 10 µM [1, 10] [%] | inhibition at 10 µM [1, 11] [%] | inhibition at 10 µM [2, 9] [%] | inhibition at 10 µM [2, 10] [%] | inhibition at 10 µM [2, 11] [%] | inhibition at 10 µM [3, 12] [%] | inhibition at 10 µM [3, 13] [%] | inhibition at 10 µM [3, 14] [%] | inhibition at 10 µM [3, 15] [%] | inhibition at 10 µM [4, 16] [%] | inhibition at 10 µM [4, 17] [%] | inhibition at 10 µM [4, 18] [%] | inhibition at 10 µM [4, 19] [%] | inhibition at 10 µM [5, 20] [%] | inhibition at 10 µM [5, 21] [%] | inhibition at 10 µM [5, 22] [%] | inhibition at 10 µM [5, 23] [%] | inhibition at 10 µM [6, 24] [%] | inhibition at 10 µM [6, 25] [%] | other results |
| --- | --- | --- | --- | --- | --- | --- | --- | --- | --- | --- | --- | --- | --- | --- | --- | --- | --- | --- | --- | --- | --- |
| NC(=O)OC[C@H](N)Cc1ccccc1 [APC, (R)-2-amino-3-phenylpropyl carbamate, reference compound] | 5.2 | 8.7 | 7 | 4.1 | 2.3 | 3.2 | 0.7 | 8.2 | 4.4 | 4.4 | -0.1 | 4.6 | 2.3 | 2.3 | 6.9 | 16 | 11.4 | 11.4 | 79.3 | 81.1 | inhibition at 10 µM [6, 26]: 80.2%; inhibition at 10 µM [6, 27]: 80.2%; binding to the dopamine transporter (in words) [6]: substantial binding; inhibition at 10 µM [7, 28]: -6.3%; inhibition at 10 µM [7, 29]: -3.3%; inhibition at 10 µM [7, 30]: -4.8%; inhibition at 10 µM [7, 31]: -4.8%; inhibition at 10 µM [8, 32]: 7%; inhibition at 10 µM [8, 33]: 7% |
| NC(=O)NC[C@H](N)Cc1ccccc1 [Compound 3, (R)-1-(2-Amino-3-phenylpropyl)urea hydrochloride] | 1.7 | 7.8 | 4.8 | 8.6 | 22.6 | 15.6 | -1.6 | 0.2 | -0.7 | -0.7 | -6.7 | 7.6 | 0.5 | 0.5 | 42.6 | 23 | 32.8 | 32.8 | 86.8 | 90.5 | inhibition at 10 µM [6, 26]: 88.6%; inhibition at 10 µM [6, 27]: 88.6%; binding to the dopamine transporter (in words) [6]: substantial binding; inhibition at 10 µM [7, 28]: -2.4%; inhibition at 10 µM [7, 29]: -0.4%; inhibition at 10 µM [7, 30]: -1.4%; inhibition at 10 µM [7, 31]: -1.4%; inhibition at 10 µM [8, 32]: 0%; inhibition at 10 µM [8, 33]: 0% |
| NC(=O)CC[C@H](N)Cc1ccccc1 [Compound 4, (S)-4-Amino-5-phenylpentanamide hydrochloride] | 7.8 | -9.3 | -0.8 | 3.4 | 2.3 | 2.9 | -8.2 | -3.7 | -6 | -6 | 1.4 | 0.8 | 1.1 | 1.1 | 7 | -21.9 | -7.5 | -7.5 | 52.9 | 60 | inhibition at 10 µM [6, 26]: 56.5%; inhibition at 10 µM [6, 27]: 56.5%; binding to the dopamine transporter (in words) [6]: substantial binding; inhibition at 10 µM [7, 28]: -2.9%; inhibition at 10 µM [7, 29]: 1.8%; inhibition at 10 µM [7, 30]: -0.5%; inhibition at 10 µM [7, 31]: -0.5%; inhibition at 10 µM [8, 32]: 0%; inhibition at 10 µM [8, 33]: 0% |
